Data as given in PubChem BioAssay (NCI).
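Values below derive from 48-hour exposures of cells grown in 96-well plates, with endpoints linearly interpolated between the two concentrations bracketing the appropriate inhibition level. GI50: concentration for 50% inhibition of growth. TGI marks complete inhibition of growth.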

Key:
Assay in all cases: DTP human tumour cell line panel, 48 h
ACHN renal = test system: ACHN renal
M14 melanoma = test system: M14 melanoma
MALME-3M melanoma = test system: MALME-3M melanoma
MOLT-4 leukemia = test system: MOLT-4 leukemia
SK-MEL-28 melanoma = test system: SK-MEL-28 melanoma
IGROV1 ovarian = test system: IGROV1 ovarian
HT29 colon = test system: HT29 colon
HOP-62 NSCLC = test system: HOP-62 NSCLC
OVCAR-8 ovarian = test system: OVCAR-8 ovarian

| Compound | TGI (ACHN renal) | TGI (M14 melanoma) | TGI (MALME-3M melanoma) | TGI (MOLT-4 leukemia) | TGI (SK-MEL-28 melanoma) | TGI (IGROV1 ovarian) | TGI (HT29 colon) | GI50 (ACHN renal) | GI50 (HOP-62 NSCLC) | TGI (HOP-62 NSCLC) | GI50 (M14 melanoma) | GI50 (MALME-3M melanoma) | GI50 (MOLT-4 leukemia) | GI50 (OVCAR-8 ovarian) | TGI (OVCAR-8 ovarian) | GI50 (SK-MEL-28 melanoma) | GI50 (IGROV1 ovarian) | GI50 (HT29 colon) |
| --- | --- | --- | --- | --- | --- | --- | --- | --- | --- | --- | --- | --- | --- | --- | --- | --- | --- | --- |
| COC(=O)C(=O)C(C#N)c1ccc(CC#N)cc1 (stereo unspecified) | > 100 µM | > 100 µM | > 100 µM | > 100 µM | > 100 µM | > 100 µM | > 100 µM | – | – | – | – | – | – | – | – | – | – | – |
| CC/C(=C(/CC)c1ccc(O)cc1)c1ccc([O-])cc1.CC/C(=C(/CC)c1ccc(O)cc1)c1ccc([O-])cc1.O=C([CH-]C(=O)c1ccccc1)c1ccccc1.O=C([CH-]C(=O)c1ccccc1)c1ccccc1.[Ti+4] | 72.8 µM | – | 20.3 µM | > 100 µM | > 100 µM | 37.7 µM | 32 µM | 20.5 µM | 14.7 µM | 28.3 µM | 8.34 µM | 7.53 µM | 4.93 µM | 21.5 µM | 46.3 µM | 15.8 µM | 16.1 µM | 18.1 µM |
| Cc1cc(C)nc(NS(=O)(=O)c2ccc(Nc3c4ccc(Cl)cc4nc4c(C(=O)Nc5ccc(S(=O)(=O)N=C(N)N)cc5)cccc34)cc2)n1 | > 100 µM | > 100 µM | > 100 µM | > 100 µM | > 100 µM | – | > 100 µM | – | – | > 100 µM | – | – | – | – | > 100 µM | – | – | – |
| O=c1[nH]c2c3ccccc3ccc2c2cc3c(cc12)OCO3 | > 100 µM | > 100 µM | > 100 µM | > 100 µM | > 100 µM | > 100 µM | > 100 µM | – | – | > 100 µM | – | – | – | – | > 100 µM | – | – | – |
| O=C(O)CC12C3C4C5C3C1C5C42 (stereo unspecified) | > 100 µM | > 100 µM | > 100 µM | > 100 µM | > 100 µM | > 100 µM | > 100 µM | – | – | > 100 µM | – | – | – | – | > 100 µM | – | – | – |
| CCCCc1ccc(-n2c3nc(=O)n(C)c(=O)c-3nc3ccccc32)cc1 | 23.1 µM | 21.7 µM | 19.7 µM | 41.9 µM | – | 33.7 µM | 11.8 µM | – | – | 32.6 µM | – | – | – | – | 32.1 µM | – | – | – |
| Cc1ccc(NC(=O)CCC/C(CC(=O)c2ccc(Br)cc2)=N/NC(=O)CC#N)cc1 | > 100 µM | > 100 µM | > 100 µM | > 100 µM | > 100 µM | > 100 µM | > 100 µM | – | – | > 100 µM | – | – | – | – | > 100 µM | – | – | – |
| C1CCN(C2OC3C(COC3N3CCCCC3)OC2OC2CCO[C@@H]2N2CCCCC2)CC1 (stereo partly specified) | > 100 µM | > 100 µM | 83.2 µM | 84.7 µM | > 100 µM | > 100 µM | > 100 µM | – | – | > 100 µM | – | – | – | – | 59.2 µM | – | – | – |
| CC(C)C1CCC/C=C/C=C/C=C/C=C/C(OC2OC(C)C(O)C(N)C2O)CC2OC(O)(CC(O)CC(O)C(O)CCC(=O)O1)CC(O)C2C(=O)O (stereo unspecified) | > 52.5 µM | > 52.5 µM | > 52.5 µM | > 52.5 µM | > 52.5 µM | > 52.5 µM | > 52.5 µM | – | – | > 52.5 µM | – | – | – | – | > 52.5 µM | – | – | – |
| COc1ccc2cc3[n+](cc2c1OC)CCc1cc(O)c(O)cc1-3 | – | > 100 µM | > 100 µM | > 100 µM | – | > 100 µM | > 100 µM | – | – | > 100 µM | – | – | – | – | > 100 µM | – | – | – |
| CCOC(=O)C1=C(Nc2ccc(Cl)cc2Cl)OC/C1=N\NS(=O)(=O)c1ccc(C)cc1 | > 100 µM | > 100 µM | > 100 µM | > 100 µM | > 100 µM | > 100 µM | > 100 µM | – | – | > 100 µM | – | – | – | – | > 100 µM | – | – | – |
